Experiments:
Type in all cases: cell-based, Influenza A
[1] = test system: A/WSN/33 N309K
[2] = test system: A/WSN/33 Y52H
[3] = test system: A/WSN/33 Y289H
[4] = test system: A/WSN/33 N309T

Row | Structure (SMILES) | EC50 [1] [µM] | EC50 [2] [µM] | EC50 [3] [µM] | EC50 [4] [µM]
1 | COc1ccccc1-c1noc(C)c1C(=O)N1CCN(c2ccc([N+](=O)[O-])cc2Cl)CC1 [Compound B] | > 20 | 8.15 | > 20 | 3.5
2 | Cc1cc(Br)cnc1N1CCN(C(=O)c2c(-c3ccccc3Cl)noc2C)CC1 [Compound D] | > 20 | > 20 | > 20 | > 20

Source: patent US20140011700A1 (Bristol-Myers Squibb Company, published 2014)
